Patent publication US9132138B2, “Method for the treatment of multiple sclerosis” (CASI Pharmaceuticals, Inc., priority 2012, dated 2015)

How the values were obtained:
human PBL = experiment: CD25 expression and cytokine production by CD3/28-stimulated human PBL; format: cell-based
Procedure: Purified CD4^+ T cells were stimulated with plate-bound anti-CD3 (clone 2C11, BD, 10 ng/ml) plus anti-CD28 (clone 37.51, BD, 100 ng/ml). Purified B220+ B cells were stimulated with anti-IgM (Jackson, 5 μg/ml), anti-CD40 (clone 3/20, BD, 5 μg/ml) or LPS (Sigma, 20 μg/ml) for the times indicated in FIG. 3. CD25 and CD69 expression was determined by flow cytometry (FACSCanto II, BD) and analyzed using FloJo software (Treestar Inc). Proliferation was assessed by 3H-thymidine incorporation. Viability and upregulation of cell surface markers on activated T cells were assessed by flow cytometry using Annexin V and propridium iodide. Human Peripheral blood mononuclear cells (PBMC) were isolated using Mono-Poly Resolving Medium (MP Biomedical) according to the manufacturer's protocols and activated with anti-CD3 (clone UCHT1) and anti-CD28 (clone CD28.2).

activated T cells = experiment: Quantitative real time PCR of mRNAs in activated T cells; format: cell-based, C57/BL6 mice
GPER1 = molecular target: T1, GPER1 (Mus musculus, UniProt Q8BMP4); experiment: GPER1 dependence: CD25/CD69 on CD4+ T cells with G15 or G1; format: cell-based, C57/BL6 mice; conditions: at 6 hours
T1 construct: Purified C57/BL6 CD4^+ T cells were preincubated with the GPER1 antagonist G15; endogenous in cells; host or cells: purified primary CD4+ T cells from C57/BL6 mice
T1 sequence (Q8BMP4 1-375): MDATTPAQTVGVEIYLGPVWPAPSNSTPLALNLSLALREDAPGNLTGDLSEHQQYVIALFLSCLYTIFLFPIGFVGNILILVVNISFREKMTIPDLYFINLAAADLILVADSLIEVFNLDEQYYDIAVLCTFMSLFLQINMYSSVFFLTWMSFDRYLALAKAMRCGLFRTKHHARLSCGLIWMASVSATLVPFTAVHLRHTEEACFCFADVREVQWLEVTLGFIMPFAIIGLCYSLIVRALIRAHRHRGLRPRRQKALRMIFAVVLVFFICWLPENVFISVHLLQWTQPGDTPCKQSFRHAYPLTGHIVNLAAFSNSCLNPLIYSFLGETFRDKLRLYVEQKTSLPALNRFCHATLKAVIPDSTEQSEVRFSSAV
Procedure: FIGS. 6A and 6B show purified CD4^+ T cells that were pretreated with 2-50 μM 2ME2 and/or the GPER1 antagonist G15, and subsequently stimulated with anti-CD3/28 for 6 hours. Activation of CD4^+ T cells was assessed by CD25 and CD69 upregulation, measured by flow cytometry. US, unstimulated. Data is shown as mean±SD for triplicate determinations, and is representative of two separate experiments.
Purified C57/BL6 CD4^+ T cells were preincubated with the GPER1 antagonist G15 (100 nM, Tocris) and 2ME2 (0-50 μM), or the GPER1 agonist G1 (1-100 nM, Tocris) for 30 minutes, and activated with plate bound anti-CD3 plus soluble anti-CD28. 6 hours later, cells were harvested, stained with anti-CD4 and anti-CD25. CD25 expression was monitored on a HTS FACSCanto II (BD) and analyzed with FloJo (Treestar Inc).

NF-κB = experiment: Gaussia luciferase reporter assay in Jurkat cells; format: cell-based; conditions: anti-CD3/28, 5 hours
Procedure: (§1) FIG. 4A, purified T cells pre-treated with 2ME2 (50 μM) were stimulated with PMA/iono for the indicated times. Whole cell lysates were subjected to immunoblotting to detect the indicated proteins. FIG. 4B, nuclear lysates were analyzed by EMSA to detect DNA binding to NF-κB or AP-1. FP, free probe. FIG. 4C, purified T cells or B cells were pre-treated with vehicle (−) or 50 μM 2ME2 (+) and were stimulated with PMA/iono for 30 or 60 minutes (left), or with anti-CD3/28 or anti-IgM/CD40 for 24 hours (right). Nuclear fractions of lymphocytes were analyzed by immunoblotting to detect nuclear translocation of NFATc1. Lamin A, nuclear protein loading control. NS; non-specific band. […]
(§2) Luciferase Assays were performed using Jurkat cells harboring a stably integrated Gaussia-luciferase reporter gene under the control of NF-κB or NFAT binding sites (Termed NFAT/NF-κB-GLuc reporter Jurkat). Gaussia luciferase contains a secretion peptide sequence mediating quantitative secretion of active enzyme into the surrounding medium. […] Luciferase activity was measured in 96-well plates using a Orion L microplate Luminometer (Berthold Detection Systems) with an integration time of 3.0 seconds. In parallel, cell viability was determined using the CellTiter-Glo® Luminescent Cell Viability Assay (Promega) and normalized Gluc activity was calculated as the ratio between Gluc activity and cell viability counts.

NFAT = experiment: Gaussia luciferase reporter assay in Jurkat cells; format: cell-based; conditions: anti-CD3/28, 5 hours
Procedure: as §1, §2

What does the source list for `COc1cc2c(cc1O)CC[C@@H]1[C@@H]2CC[C@]2(C)[C@@H](O)CC[C@@H]12` [2ME2, 2-Methoxyestradiol]?
IFNγ production (human PBL; CD3/28-stimulated human PBL): inhibited; IL-2 production (human PBL; CD3/28-stimulated human PBL): inhibited; IL-17A production (human PBL; CD3/28-stimulated human PBL): inhibited; anti-CD3/28-induced expression of CD25 on CD4+ and CD8+ T cells (human PBL; human PBL): inhibited; induction of CD25 mRNA (activated T cells; 2ME2 50 μM, anti-CD3/28): decreased the induction; induction of CD44 mRNA (activated T cells; 2ME2 50 μM, anti-CD3/28): decreased the induction; induction of IFNγ mRNA (activated T cells; 2ME2 50 μM, anti-CD3/28): decreased the induction; induction of IL-2 mRNA (activated T cells; 2ME2 50 μM, anti-CD3/28): decreased the induction; induction of TNFα mRNA (activated T cells; 2ME2 50 μM, anti-CD3/28): decreased the induction; mRNA levels of GATA3 (activated T cells; 3 hours post stimulation): normal induction; up-regulation of IL-17 mRNA (activated T cells; after 3 hours and 24 hours anti-CD3/28 stimulation): blocking up-regulation; upregulation of IL-4 mRNA (activated T cells; in response to TCR ligation): inhibited; IL-17 production on re-stimulation (activated T cells; re-stimulation after 5 days activation): blocked; cell viability (GPER1): Neither 2ME2, G1 nor G15 affected cell viability; NF-κB-dependent transcriptional activity (normalized luciferase activity) (NF-κB): no effect; transcriptional activation of NFAT via TCR ligation (normalized luciferase activity) (NFAT): dramatically inhibited
